From article PMC12866179, “Oxidized MIF is an Alzheimer’s disease drug target relaying external risk factors to tau pathology” (Cell Reports Medicine, 2025)

Tests used:
[1] = tested on: HSV-1; experiment: Plaque assay of HSV-1-infected SH-SY5Y-tau-P301S control and MIF-knockdown cells; format: cell-based, HSV-1 KOS strain
Method: Virus titer determination was carried out in 25-cm^2 flasks or 6-well plates with confluent Vero cells. The virus stock was serially diluted in Medium 199. 1 mL of each of the dilutions was added to the Vero cells in duplicates and incubated for 2h. Then the inoculum was aspirated and DMEM supplemented with 5% NBCS and 7.5 μg/mL human immunoglobulin (Sigma) was added. After two days the cells were washed twice with PBS and fixed with MeOH for 5 min at RT. Then 1:10 diluted KaryoMax Giemsa stain solution (Gibco) was added to the cells and incubated for 20 min at RT. Following washing with water the plaques were counted under the microscope and the titer was calculated.
4x10^5 Vero cells, 8x10^5 SH-SY5Y or 2x10^6 differentiated LUHMES (differentiation day 6) cells were seeded into 12-well plates. After 24h the cells were treated with compounds (as indicated in the figures) and after 1h they were infected with HSV-1 applying MOIs as described in the figures. After 20h (or at indicated time points) cells were either washed twice with PBS, then lysed in cold PBS/1% NP40 including the cOmplete EDTA-free protease inhibitor cocktail (Roche) and phosphatase inhibitor cocktail (Sigma) or virus was released by freeze-thawing and ultrasonic treatment for analysis in viral plaque assay (see above).
[…] Two-wa y ANOVA (Sidak´s post-hoc) […]

[2] = tested on: tau phosphorylation and aggregation; experiment: Treatment of tgTau58/2 mice, tau phosphorylation and sarkosyl-insoluble tau in brain; format: in vivo; details: tau58/2 mice
Text: TgTau58/2 mice[44] that express the human 0N4R tau isoform with the P301Smutation under control of the mouse Thy1.2 promoter were a kind gift from Novartis (Boston, USA). Experimental animals were two months old, male, and heterozygous for the transgene. Wildtype littermates on C57BL/6J background served as control. The mice were maintained in pathogen-free conditions in the Animal Facility at the University of Düsseldorf, Germany, fed ad libitum with standard laboratory chow and water in ventilated cages under a 12h light/dark cycle. All experiments were in conformity with the Animal Protection Law approved by local authorities (LANUV NRW, Recklinghausen, Germany).
TgTau58/2 mice[44] were a kind gift from Novartis (Boston, USA). Two months-old males, heterozygous for the tau-P301S transgene (n = 12 per group), were either treated with 10% DMSO or 5 mg/kg body weight compound PAV-617 for four weeks administering 100 μL volumes intraperitoneally three times a week, after which animals were perfused with PBS and terminated. The brains were extracted cut into two-halves and flash frozen in liquid N2. One brain halve was homogenized in cold extraction buffer (10 mM Tris pH7.4, 1mM EGTA, 0.8M NaCl, 10% sucrose, 1x Protease inhibitor cocktail, 1x phosphatase inhibitor cocktail 2) to 10%. For screening 1% NP40, 0.1mg/mL DNAseI and 5 mM MgSO4 were added to the homogenates and after 30 min incubation on ice the protein concentration was determined using the DC Protein Assay Kit (Bio-Rad). Equal amounts of protein were then either directly used for detection of tau in the whole homogenate by immunoblot or sarkosyl insoluble tau was precipitated following a protocol of.[93] 750 μg lysate were centrifuged at 6,000g for 20 min at 4°C. Then the supernatant was carefully taken and sarkosyl was added to 1% end concentration. After an incubation for 1h at RT the samples were spun down at 100,000g for 1h at 4°C. The supernatants were removed and the pellets carefully washed with 200 μL extraction buffer without sucrose. […]

| SMILES | HSV-1 titer-lowering effect in MIF-knockdown cells [1] | phosphorylated tau (AT8) in brain homogenates ([2]; 5 mg/kg) | phosphorylated tau (PHF-1) in the sarkosyl-insoluble fraction ([2]; 5 mg/kg) | HT7-normalized phosphorylated tau (PHF-1) in brain homogenates ([2]; 5 mg/kg i.p. three times a week for four weeks) |
| --- | --- | --- | --- | --- |
| CCc1cc(N2CCCC2)cc2[s+]c3cc(N4CCCC4)cc(C)c3nc12.[I-] [PAV-174, 3,7-Di(pyrrolidine-1-yl) 1-ethyl-9-methyl-phenothiazin-5-ium iodide] | did not exert comparable titer-lowering effects | – | – | – |
| [I-].c1cc2nc3ccc(N4CCCC4)cc3[s+]c2cc1N1CCCC1 [PAV-617, 3,7-Di(pyrrolidine-1-yl)phenothiazine-5-ium iodide] | – | reduced | Significantly less | reduced |
